Reference: ChEMBL document CHEMBL1201862, “PubChem BioAssay data set” (2004)
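Protocol summary: plate cells (96-well), add compound at 5 concentrations, incubate 48 h, interpolate endpoints linearly. GI50: concentration for 50% inhibition of growth.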 Active and inactive are the calls of the source. No stated cut-off is given here; in the data, active = GI50 up to about 1.1 µM and inactive = higher.

Legend:
Test in all cases: NCI tumour cell line growth inhibition, 48 h
786-0 = test system: 786-0
A498 = test system: A498
A549 = test system: A549
ACHN = test system: ACHN
BT-549 = test system: BT-549
CAKI-1 = test system: CAKI-1
CCRF-CEM = test system: CCRF-CEM
COLO 205 = test system: COLO 205
DU-145 = test system: DU-145
EKVX = test system: EKVX
HCC 2998 = test system: HCC 2998
HCT-116 = test system: HCT-116
HCT-15 = test system: HCT-15
HL-60 = test system: HL-60
HOP-62 = test system: HOP-62
HOP-92 = test system: HOP-92
HT-29 = test system: HT-29
Hs-578T = test system: Hs-578T
IGROV-1 = test system: IGROV-1
K562 = test system: K562
KM12 = test system: KM12
LOX IMVI = test system: LOX IMVI
M14 = test system: M14
MCF7 = test system: MCF7
MDA-MB-231 = test system: MDA-MB-231
MDA-MB-435 = test system: MDA-MB-435
MDA-N = test system: MDA-N
MOLT-4 = test system: MOLT-4
NCI-H226 = test system: NCI-H226
NCI-H23 = test system: NCI-H23
NCI-H460 = test system: NCI-H460
NCI-H522 = test system: NCI-H522
NCI/ADR-RES = test system: NCI/ADR-RES
OVCAR-3 = test system: OVCAR-3
OVCAR-4 = test system: OVCAR-4
OVCAR-5 = test system: OVCAR-5
OVCAR-8 = test system: OVCAR-8
PC-3 = test system: PC-3
RXF 393 = test system: RXF 393
SF-268 = test system: SF-268
SF-295 = test system: SF-295
SK-MEL-28 = test system: SK-MEL-28
SK-MEL-2 = test system: SK-MEL-2
SK-MEL-5 = test system: SK-MEL-5
SK-OV-3 = test system: SK-OV-3
SN12C = test system: SN12C
SNB-19 = test system: SNB-19
SW-620 = test system: SW-620
T47D = test system: T47D
TK-10 = test system: TK-10
U-251 = test system: U-251
UACC-257 = test system: UACC-257
UACC-62 = test system: UACC-62
UO-31 = test system: UO-31
Malme-3M = test system: Malme-3M
RPMI-8226 = test system: RPMI-8226
SNB-75 = test system: SNB-75

With O=c1[nH]c2c(C(F)(F)F)c(Cl)c(-c3ccccc3)nc2o1 the GI50 (786-0) was 24.4 µM (inactive), the GI50 (A498) was 57.8 µM (inactive) and the GI50 (A549) was 19.8 µM (inactive). For the same compound, the GI50 (ACHN) was 65.5 µM (inactive), the GI50 (BT-549) was 15.7 µM (inactive) and the GI50 (CAKI-1) was 34.4 µM (inactive). For the same compound, the GI50 (CCRF-CEM) was 10 µM (inactive), the GI50 (COLO 205) was 14.9 µM (inactive) and the GI50 (DU-145) was 38.1 µM (inactive). The GI50 (EKVX) was 14.8 µM (inactive), the GI50 (HCC 2998) was 25.5 µM (inactive) and the GI50 (HCT-116) was 16.1 µM (inactive). For the same compound, the GI50 (HCT-15) was 22.1 µM, the GI50 (HL-60) was 1.41 µM (inactive) and the GI50 (HOP-62) was 35.4 µM (inactive). The GI50 (HOP-92) was 9.33 µM (inactive), the GI50 (HT-29) was 23.3 µM (inactive) and the GI50 (Hs-578T) was 55.6 µM (inactive). For the same compound, the GI50 (IGROV-1) was 41.8 µM (inactive), the GI50 (K562) was 27.2 µM (inactive) and the GI50 (KM12) was 26.7 µM (inactive). For the same compound, the GI50 (LOX IMVI) was 27.1 µM (inactive), the GI50 (M14) was 21.5 µM (inactive) and the GI50 (MCF7) was 45.6 µM (inactive). For the same compound, the GI50 (MDA-MB-231) was 25.1 µM (inactive), the GI50 (MDA-MB-435) was 28.3 µM (inactive) and the GI50 (MDA-N) was 14.8 µM (inactive). The GI50 (MOLT-4) was 13.7 µM (inactive), the GI50 (NCI-H226) was 30.3 µM (inactive) and the GI50 (NCI-H23) was 15.3 µM (inactive). The GI50 (NCI-H460) was 23.9 µM (inactive), the GI50 (NCI-H522) was 32.1 µM (inactive) and the GI50 (NCI/ADR-RES) was 16.6 µM (inactive). For the same compound, the GI50 (OVCAR-3) was 17.3 µM (inactive), the GI50 (OVCAR-4) was 19.6 µM (inactive) and the GI50 (OVCAR-5) was 11.8 µM (inactive). The GI50 (OVCAR-8) was 31.3 µM (inactive), the GI50 (PC-3) was 23.2 µM (inactive) and the GI50 (RXF 393) was 21.5 µM (inactive). The GI50 (SF-268) was 54.7 µM (inactive), the GI50 (SF-295) was 13.3 µM (inactive) and the GI50 (SK-MEL-28) was 22.8 µM (inactive). For the same compound, the GI50 (SK-MEL-2) was 18.5 µM (inactive), the GI50 (SK-MEL-5) was 4.83 µM (inactive) and the GI50 (SK-OV-3) was 23.6 µM (inactive). For the same compound, the GI50 (SN12C) was 10.9 µM (inactive), the GI50 (SNB-19) was 25.5 µM (inactive) and the GI50 (SW-620) was 33.8 µM (inactive). The GI50 (T47D) was 20.2 µM (inactive), the GI50 (TK-10) was 31.2 µM (inactive) and the GI50 (U-251) was 19.3 µM (inactive). The GI50 (UACC-257) was 14.1 µM (inactive), the GI50 (UACC-62) was 75.5 µM (inactive) and the GI50 (UO-31) was 12.5 µM (inactive).
For O=C(/C=C1\N=C(c2ccccc2)N(c2nc3ccc(Sc4ccccc4)cc3[nH]2)C1=O)/C=C/c1ccccc1, the GI50 (786-0) was 33.3 µM (inactive), the GI50 (A498) was 27.9 µM (inactive) and the GI50 (A549) was 41.1 µM (inactive). For the same compound, the GI50 (ACHN) was 52.7 µM (inactive), the GI50 (BT-549) was 31.1 µM (inactive) and the GI50 (CAKI-1) was 31.3 µM (inactive). For the same compound, the GI50 (CCRF-CEM) was 31.6 µM (inactive), the GI50 (COLO 205) was 16.5 µM (inactive) and the GI50 (DU-145) was 28.1 µM (inactive). For the same compound, the GI50 (EKVX) was 43.4 µM (inactive), the GI50 (HCC 2998) was 17.4 µM (inactive) and the GI50 (HCT-116) was 32.8 µM (inactive). For the same compound, the GI50 (HCT-15) was 33.1 µM, the GI50 (HL-60) was 20.8 µM (inactive) and the GI50 (HOP-62) was 39.7 µM (inactive). For the same compound, the GI50 (HOP-92) was 37.8 µM (inactive), the GI50 (HT-29) was 30.3 µM (inactive) and the GI50 (Hs-578T) was 26.4 µM (inactive). The GI50 (IGROV-1) was 45.4 µM (inactive), the GI50 (K562) was 26.2 µM (inactive) and the GI50 (KM12) was 26.7 µM (inactive). The GI50 (LOX IMVI) was 17.4 µM (inactive), the GI50 (M14) was 33.3 µM (inactive) and the GI50 (MCF7) was 30.1 µM (inactive). For the same compound, the GI50 (MDA-MB-231) was 22.4 µM (inactive), the GI50 (MDA-MB-435) was 15.7 µM (inactive) and the GI50 (MDA-N) was 14.9 µM (inactive). For the same compound, the GI50 (MOLT-4) was 33.3 µM (inactive), the GI50 (Malme-3M) was 34.7 µM (inactive) and the GI50 (NCI-H23) was 31.6 µM (inactive). For the same compound, the GI50 (NCI-H460) was 30.2 µM (inactive), the GI50 (NCI-H522) was 20.3 µM (inactive) and the GI50 (NCI/ADR-RES) was 24.4 µM (inactive). For the same compound, the GI50 (OVCAR-3) was 29.6 µM (inactive), the GI50 (OVCAR-4) was 39.8 µM (inactive) and the GI50 (OVCAR-5) was 44 µM (inactive). For the same compound, the GI50 (OVCAR-8) was 24.5 µM (inactive), the GI50 (PC-3) was 30.5 µM (inactive) and the GI50 (RPMI-8226) was 22.6 µM (inactive). The GI50 (RXF 393) was 22.8 µM (inactive), the GI50 (SF-268) was 31.4 µM (inactive) and the GI50 (SF-295) was 28.2 µM (inactive). For the same compound, the GI50 (SK-MEL-28) was 46.5 µM (inactive), the GI50 (SK-MEL-2) was 18.7 µM (inactive) and the GI50 (SK-MEL-5) was 21.5 µM (inactive). The GI50 (SK-OV-3) was 40.9 µM (inactive), the GI50 (SN12C) was 40 µM (inactive) and the GI50 (SNB-19) was 49 µM (inactive). For the same compound, the GI50 (SNB-75) was 16.7 µM (inactive), the GI50 (SW-620) was 33.9 µM (inactive) and the GI50 (T47D) was 22.6 µM (inactive). For the same compound, the GI50 (TK-10) was 29.2 µM (inactive), the GI50 (U-251) was 27.7 µM (inactive) and the GI50 (UACC-257) was 30.8 µM (inactive). The GI50 (UACC-62) was 22.9 µM (inactive) and the GI50 (UO-31) was 53.3 µM (inactive).
